{"source": "patent US10458996B1", "about": "“Methods for determining clinical response to TNF-alpha and/or JAK inhibitors in subjects with inflammatory diseases” (Beth Israel Deaconess Medical Center, Inc., priority 2016, dated 2019)", "key": {"[1]": {"tested_on": "intestinal mucosal explants from patients with IBD", "experiment": "Ex vivo infliximab treatment of intestinal mucosal explant cultures, cytokines in supernatant by multiplex ELISA", "type": "cell-based, human", "conditions": "for number of cytokines down-regulated in the ex vivo assay: mean±SEM; for ex vivo response rate / ex vivo response rate (patients): responder = down-regulation of >2 cytokines", "description": "During a hospital visit for an endoscopic procedure that was part of their standard care, patients were asked by the study coordinator whether they were willing to participate in this research study and sign the informed consent approved by the Institution's Committee on Clinical Investigations. From each patient, four extra punch biopsies were taken from the macroscopically most diseased areas of the inflamed intestinal mucosa, put on ice and transferred to the lab within 30 minutes of their harvesting.\nFrom each patient, intestinal mucosal biopsies were minced into several pieces and distributed in 8 wells of a 96-well plate in 250 μl of Dulbecco's Modified Eagle Medium (DMEM) supplemented with 10% FBS and antibiotic-antimycotic (Life Technologies, CA). Half of the cultures were treated with infliximab (REMICADE®; 0.5 mg/ml; Janssen Biotech, Inc, NJ) and the plate was incubated at 37° C. in a humidified chamber of 95% O2/5% CO2 for 18 hours. Culture supernatants were collected, filtered and stored at −80° C. […] Signal detection and analysis was performed by MAGPIX® (Luminex Corporation, TX).\nWithin each patient, differences in cytokine release between control and infliximab-treated cultures (n=4 per group) were assessed by the Mann-Whitney test. Cytokine changes in patients with CD (N=29) or UC (N=16) were expressed as mean±SEM and evaluated by unpaired t-test followed by Bonferroni correction for multiple comparisons. In rate or percentage comparisons a chi-square test was applied. The non-parametric Mann-Whitney test was chosen for the rest of two-group analyses. The STATView 2.0 software (SAS Institute) was used for all tests with the exception of the Receiver Operating Characteristic (ROC) analysis for which STATA13 was used.\nThe impact of anti-TNFα (infliximab) treatment was investigated in vitro using mucosal biopsy cultures derived from the most inflamed areas of the terminal ileum or colon of a total of 45 patients with IBD, 64% with CD and 36% with UC. At the time the biopsies were taken, 32 patients (71%) were receiving medications for their IBD and 16 of them were under an anti-TNFα regimen. The assay read-out consisted of a panel of 15 cytokines, chemokines and inflammatory mediators, and its design was based on previously reported biomarkers for CD and UC, on biomarkers that correlated with response to anti-TNFα treatment and on plausible TNF-alpha related biological mechanisms (Tracey et al., Rismo et al., Iskandar et al., Transl Res 159:313-325, 2012; Umehara et al., Hepatogastroenterology 53:879-882, 2006). For each patient and each cytokine, data were generated for the two conditions (plus/minus infliximab) using the median of 4 independent cultures."}, "[2]": {"tested_on": "patients with CD and UC", "conditions": "cited from earlier work"}, "[3]": {"conditions": "Clinical Response Yes (n = 11), infliximab 0.5 mg/ml, 18 hours"}, "[4]": {"conditions": "Clinical Response Yes (n = 11), some values below detection limit or missing, infliximab 0.5 mg/ml, 18 hours"}, "[5]": {"conditions": "Mann-Whitney within each patient, 0.5 mg/ml, 18 hours"}, "[6]": {"conditions": "cohort 1, anti-TNFα naïve IBD patients"}, "[7]": {"conditions": "cohort 2, anti-TNFα exposed patients"}}, "data": [{"substance": "infliximab", "values": [{"measurement": "GM-CSF inhibition by ex vivo infliximab treatment, N patients", "setting": "[1]; [3]", "result": 1}, {"measurement": "IFNγ inhibition by ex vivo infliximab treatment, % patients", "setting": "[1]; [3]", "result": 45.5, "unit": "%"}, {"measurement": "IFNγ inhibition by ex vivo infliximab treatment, N patients", "setting": "[1]; [3]", "result": 5}, {"measurement": "IL-1β inhibition by ex vivo infliximab treatment, % patients", "setting": "[1]; [3]", "result": 45.5, "unit": "%"}, {"measurement": "IL-1β inhibition by ex vivo infliximab treatment, N patients", "setting": "[1]; [3]", "result": 5}, {"measurement": "IL-2 inhibition by ex vivo infliximab treatment, % patients", "setting": "[1]; [3]", "result": 45.5, "unit": "%"}, {"measurement": "IL-2 inhibition by ex vivo infliximab treatment, N patients", "setting": "[1]; [3]", "result": 5}, {"measurement": "IL-4 inhibition by ex vivo infliximab treatment, % patients", "setting": "[1]; [3]", "result": 63.6, "unit": "%"}, {"measurement": "IL-4 inhibition by ex vivo infliximab treatment, N patients", "setting": "[1]; [3]", "result": 7}, {"measurement": "IL-5 inhibition by ex vivo infliximab treatment, % patients", "setting": "[1]; [3]", "result": 81.8, "unit": "%"}, {"measurement": "IL-5 inhibition by ex vivo infliximab treatment, N patients", "setting": "[1]; [3]", "result": 9}, {"measurement": "IL-6 inhibition by ex vivo infliximab treatment, % patients", "setting": "[1]; [3]", "result": 0.0, "unit": "%"}, {"measurement": "IL-6 inhibition by ex vivo infliximab treatment, N patients", "setting": "[1]; [3]", "result": 0}, {"measurement": "IL-7 inhibition by ex vivo infliximab treatment, N patients", "setting": "[1]; [3]", "result": 8}, {"measurement": "IL-8 inhibition by ex vivo infliximab treatment, % patients", "setting": "[1]; [3]", "result": 0.0, "unit": "%"}, {"measurement": "IL-8 inhibition by ex vivo infliximab treatment, N patients", "setting": "[1]; [3]", "result": 0}, {"measurement": "IL-10 inhibition by ex vivo infliximab treatment, % patients", "setting": "[1]; [3]", "result": 18.2, "unit": "%"}, {"measurement": "IL-10 inhibition by ex vivo infliximab treatment, N patients", "setting": "[1]; [3]", "result": 2}, {"measurement": "IL-12p40 inhibition by ex vivo infliximab treatment, % patients", "setting": "[1]; [3]", "result": 45.5, "unit": "%"}, {"measurement": "IL-12p40 inhibition by ex vivo infliximab treatment, N patients", "setting": "[1]; [3]", "result": 5}, {"measurement": "IL-12p70 inhibition by ex vivo infliximab treatment, % patients", "setting": "[1]; [3]", "result": 27.3, "unit": "%"}, {"measurement": "IL-12p70 inhibition by ex vivo infliximab treatment, N patients", "setting": "[1]; [3]", "result": 3}, {"measurement": "IL-13 inhibition by ex vivo infliximab treatment, N patients", "setting": "[1]; [3]", "result": 7}, {"measurement": "IL-17A inhibition by ex vivo infliximab treatment, % patients", "setting": "[1]; [3]", "result": 72.7, "unit": "%"}, {"measurement": "IL-17A inhibition by ex vivo infliximab treatment, N patients", "setting": "[1]; [3]", "result": 8}, {"measurement": "MCP-1 inhibition by ex vivo infliximab treatment, % patients", "setting": "[1]; [3]", "result": 9.1, "unit": "%"}, {"measurement": "MCP-1 inhibition by ex vivo infliximab treatment, N patients", "setting": "[1]; [3]", "result": 1}, {"measurement": "IL-7 inhibition by ex vivo infliximab treatment, % patients", "setting": "[1]; [4]", "result": 88.8, "unit": "%"}, {"measurement": "IL-13 inhibition by ex vivo infliximab treatment, % patients", "setting": "[1]; [4]", "result": 70.0, "unit": "%"}, {"measurement": "number of cytokines per patient, besides TNFα, significantly inhibited ex vivo, maximum", "setting": "[1]; [5]", "result": 12}, {"measurement": "number of cytokines per patient, besides TNFα, significantly inhibited ex vivo, median", "setting": "[1]; [5]", "result": 2}, {"measurement": "number of cytokines per patient, besides TNFα, significantly inhibited ex vivo, minimum", "setting": "[1]; [5]", "result": 0}, {"measurement": "Changes in TNFα levels in culture supernatant", "setting": "[1]; all patients tested, p<0.0001, 0.5 mg/ml, 18 hours", "result": "robustly down-regulated"}, {"measurement": "number of cytokines down-regulated in the ex vivo assay", "setting": "[1]; clinical non-responders to anti-TNFα therapy", "result": "1.29±0.63"}, {"measurement": "number of cytokines down-regulated in the ex vivo assay", "setting": "[1]; clinical responders to anti-TNFα therapy", "result": "6.0±1.02"}, {"measurement": "ex vivo inhibition of IL-17A, IL-7, IL-5 and IL-4/IL-13", "setting": "[1]; clinical responders versus non-responders to anti-TNFα therapy", "result": "almost exclusively observed in the clinical responders"}, {"measurement": "ex vivo response rate", "setting": "[1]; [6]", "result": 45.5, "unit": "%"}, {"measurement": "ex vivo response rate (patients)", "setting": "[1]; [6]", "result": "10/23"}, {"measurement": "ex vivo response rate", "setting": "[1]; [7]", "result": 43.5, "unit": "%"}, {"measurement": "ex vivo response rate (patients)", "setting": "[1]; [7]", "result": "10/22"}, {"measurement": "magnitude of infliximab-mediated inhibition of the rest of cytokines (other than TNFα)", "setting": "[1]; group means, CD and UC patients, 0.5 mg/ml, 18 hours", "result": "< 30", "unit": "%"}, {"measurement": "cytokines whose inhibition reached statistical significance", "setting": "[1]; patients with CD (N=29), 0.5 mg/ml, 18 hours", "result": "IL-2 (p<0.001), IL-12p40 (p<0.05) and IL-5 (p<0.05)"}, {"measurement": "cytokines whose inhibition reached statistical significance", "setting": "[1]; patients with UC (N=16), 0.5 mg/ml, 18 hours", "result": "IL-1β (p<0.05) and IL-7 (p<0.05)"}, {"measurement": "sustained response rates beyond week 30", "setting": "[2]; IBD patients", "result": "30-40%"}, {"measurement": "Primary response rates to induction therapy", "setting": "[2]; randomized clinical trials of CD and UC", "result": "up to 60%"}]}]}
